Experimental data: paper PMC4393269, “Carvacrol Codrugs: A New Approach in the Antimicrobial Plan” (PLoS ONE, 2015)
≈ marks a conversion by molar mass, not a printed value. Counter-ions that a name gives are not always drawn.

Tests used:
[1] = system: C. albicans ATCC 10231; experiment: Broth microdilution MIC/MFC; type: cell-based; settings: Candida albicans, ATCC10231; for MIC: C. albicans ATCC 10231, 24–48 h at 37°C, read-out: MIC; for MFC: C. albicans ATCC 10231, read-out: MFC
Experimental: (§1) Two Gram-positive (S. aureus ATCC 29213 and S. epidermidis ATCC 35984) and two Gram-negative (E. coli ATCC 8739 and P. aeruginosa ATCC 9027) strains, and one fungal strain (C. albicans ATCC 10231) were used for the detection of antibacterial activity of carvacrol, NAC, Ac-Cys(Allyl)-OH, and carvacrol codrugs 1–10. All tested compounds were dissolved in 20% DMSO to prepare the stock solution (100 mg/mL). The final concentration of DMSO in each well appeared to be not toxic for all studied microorganisms, as confirmed by the solvent control test included in the study.
The MIC detection of C. albicans ATCC 10231 was performed using the broth microdilution method according to EUCAST guidelines in RPMI 1640 plus 2% glucose with a final inoculum of 1–5 x 10^5 CFU/mL for 24–48 h at 37°C. The Minimum Fungicidal Concentration (MFC) was determined as the lowest concentration of substances at which no fungal growth occurred on Sabouraud agar plates.
(§2) Data were obtained from at least three independent experiments performed in duplicate. The susceptibility of the bacterial strains against ciprofloxacin was used as an internal standard during MIC determinations.

[2] = system: human red blood cells (h-RBC); experiment: Hemolytic activity; type: cell-based; settings: 4% h-RBC, 1 h at 37°C; for hemolytic activity, maximum at the tested concentrations: 25 to 0.05 mg/mL
Experimental: (§3) Experimental protocols to study hemolysis on human red cells were approved by Ethics Committee of the University “G. d’Annunzio” Chieti-Pescara. Human red cells were from two volunteers, who signed the informed consent for this study.
(§4) Hemolytic activity of carvacrol codrugs 1–10 was tested against human red blood cells (h-RBC). Fresh human blood, collected with EDTA, was centrifuged at 3000 rpm for 5 min then washed three times with PBS pH 7.3. Red blood cells were diluted to 4% in PBS and incubated with different codrugs concentrations ranging from 25 to 0.05 mg/mL. After 1 h of incubation at 37°C, the suspensions were sedimented by centrifugation and the release of hemoglobin was determined by absorbance measurement at 405 nm and compared with a 0% hemolysis control (PBS) and a 100% hemolysis control (PBS with 1% v/v Triton X-100). The percentage of hemolysis was calculated using the following equation: Hemolysis (%) = [(OD405sample - OD4050% lysis control)/(OD405100% lysis control - OD4050% lysis contro)] X 100

[3] = system: S. aureus ATCC 29213; experiment: Broth microdilution MIC/MBC on planktonic cells; type: cell-based; settings: Staphylococcus aureus, ATCC29213; for MIC: S. aureus ATCC 29213, 24 h at 37°C, read-out: MIC; for MBC: S. aureus ATCC 29213, read-out: MBC
Experimental: as §1
(§5) The effects of carvacrol codrugs 1–10 and reference compounds on planktonic cells were evaluated by Minimum Inhibitory Concentration (MIC) and Minimum Bactericidal Concentration (MBC) determination using the broth microdilution method according to EUCAST guidelines. Bacterial suspensions, grown in Mueller–Hinton Broth (MHB) at logarithmic phase, were incubated on microtiter plates at a concentration of 5 x 10^5 CFU/mL, with several dilutions (0.07–40 mg/mL) for 24 h at 37°C. The MIC was defined as the lowest concentration of substances giving a complete inhibition of visible growth in comparison with a control well, and the MBC was determined as the lowest concentration at which no bacterial growth occurred on Mueller–Hinton Agar plates.
as §2

[4] = system: P. aeruginosa ATCC 9027; experiment: Broth microdilution MIC/MBC on planktonic cells; type: cell-based; settings: Pseudomonas aeruginosa, ATCC9027; for MIC: P. aeruginosa ATCC 9027, 24 h at 37°C, read-out: MIC; for MBC: P. aeruginosa ATCC 9027, read-out: MBC
Experimental: as §1, §5, §2

[5] = system: E. coli ATCC 8739; experiment: Broth microdilution MIC/MBC on planktonic cells; type: cell-based; settings: Escherichia coli, ATCC8739; for MIC: E. coli ATCC 8739, 24 h at 37°C, read-out: MIC; for MBC: E. coli ATCC 8739, read-out: MBC
Experimental: as §1, §5, §2

[6] = system: S. epidermidis ATCC 35984; experiment: Broth microdilution MIC/MBC on planktonic cells; type: cell-based; settings: Staphylococcus epidermidis, ATCC35984; for MIC: S. epidermidis ATCC 35984, 24 h at 37°C, read-out: MIC; for MBC: S. epidermidis ATCC 35984, read-out: MBC
Experimental: as §1, §5, §2

[7] = Hemolytic activity; type: cell-based, human; settings: human, human red blood cells (h-RBC), 4% suspension, pH 7.3; 4% h-RBC in PBS, 1 h at 37°C, at the compound's MIC values
Experimental: as §3, §4

With CSCC[C@H](NC(C)=O)C(=O)Oc1cc(C(C)C)ccc1C [codrug 5, N-Ac-Met-CAR] the MIC [1] was 5000 µg/mL (≈ 15.5 mM), the MFC [1] was 5000 µg/mL (≈ 15.5 mM) and the “concentration at which hemolytic activity is over 50%” value (shortened to “concentration … over 50%”) [2] was “over 20 mg/mL”. The MIC [3] was 10000 µg/mL (≈ 30.9 mM), the MBC [3] was 10000 µg/mL (≈ 30.9 mM) and the MIC [4] was 5000 µg/mL (≈ 15.5 mM). For the same compound, the MBC [4] was 10000 µg/mL (≈ 30.9 mM), the MIC [5] was 10000 µg/mL (≈ 30.9 mM) and the MBC [5] was 10000 µg/mL (≈ 30.9 mM). It also gave an MIC [6] of 10000 µg/mL (≈ 30.9 mM) and an MBC [6] of 10000 µg/mL (≈ 30.9 mM).

For C[Se]CC[C@H](NC(C)=O)C(=O)Oc1cc(C(C)C)ccc1C [codrug 6, N-Ac-Met(Se)-CAR], the MIC [1] was 150 µg/mL (≈ 0.405 mM), the MFC [1] was 600 µg/mL (≈ 1.62 mM) and the “concentration … over 50%” value [2] was “over 20 mg/mL”. The MIC [3] was 10000 µg/mL (≈ 27 mM), the MBC [3] was 10000 µg/mL (≈ 27 mM) and the MIC [4] was 5000 µg/mL (≈ 13.5 mM). It also gave an MBC [4] of 10000 µg/mL (≈ 27 mM), an MIC [5] of 5000 µg/mL (≈ 13.5 mM) and an MBC [5] of 10000 µg/mL (≈ 27 mM). For the same compound, the MIC [6] was 5000 µg/mL (≈ 13.5 mM) and the MBC [6] was 10000 µg/mL (≈ 27 mM).

With Cc1ccc(C(C)C)cc1OC(=O)CCCC[C@@H]1CCSS1 [codrug 7, LA-CAR] the MIC [1] was 2500 µg/mL (≈ 7.38 mM), the MFC [1] was 5000 µg/mL (≈ 14.8 mM) and the “hemolytic activity, maximum at the tested concentrations” value [2] was no more than 12%. The MIC [3] was 10000 µg/mL (≈ 29.5 mM), the MBC [3] was 10000 µg/mL (≈ 29.5 mM) and the MIC [4] was 5000 µg/mL (≈ 14.8 mM). The MBC [4] was 10000 µg/mL (≈ 29.5 mM), the MIC [5] was 5000 µg/mL (≈ 14.8 mM) and the MBC [5] was 10000 µg/mL (≈ 29.5 mM). The MIC [6] was 10000 µg/mL (≈ 29.5 mM) and the MBC [6] was 10000 µg/mL (≈ 29.5 mM).

With Cc1ccc(C(C)C)cc1OC(=O)[C@@H]1CSCN1 [codrug 8, TFA·TCA-CAR] the MIC [1] was 600 µg/mL, the MFC [1] was 600 µg/mL and the “concentration … over 50%” value [2] was 3000 µg/mL. The hemolysis at 1 h [7] was greater than 50%, the MIC [3] was 5000 µg/mL and the MBC [3] was 10000 µg/mL. For the same compound, the MIC [4] was 10000 µg/mL, the MBC [4] was 10000 µg/mL and the MIC [5] was 5000 µg/mL. It also gave an MBC [5] of 5000 µg/mL, an MIC [6] of 2500 µg/mL and an MBC [6] of 5000 µg/mL.

For C#CCSC[C@H](NC(C)=O)C(=O)Oc1cc(C(C)C)ccc1C [codrug 9, N-Ac-Cys(Propargyl)-CAR], the MIC [1] was 1250 µg/mL (≈ 3.75 mM), the MFC [1] was 2500 µg/mL (≈ 7.5 mM) and the “concentration … over 50%” value [2] was 10000 µg/mL. For the same compound, the hemolysis at 1 h [7] was greater than 50%, the MIC [3] was 10000 µg/mL (≈ 30 mM) and the MBC [3] was 10000 µg/mL (≈ 30 mM). For the same compound, the MIC [4] was 10000 µg/mL (≈ 30 mM), the MBC [4] was 10000 µg/mL (≈ 30 mM) and the MIC [5] was 10000 µg/mL (≈ 30 mM). It also gave an MBC [5] of 10000 µg/mL (≈ 30 mM), an MIC [6] of 5000 µg/mL (≈ 15 mM) and an MBC [6] of 10000 µg/mL (≈ 30 mM).

With Cc1ccc(C(C)C)cc1OC(=O)[C@@H]1CSC(=O)N1 [codrug 10, OTC-CAR] the MIC [1] was 2500 µg/mL (≈ 8.95 mM), the MFC [1] was 2500 µg/mL (≈ 8.95 mM) and the “hemolytic activity, maximum at the tested concentrations” value [2] was no more than 12%. For the same compound, the MIC [3] was 10000 µg/mL (≈ 35.8 mM), the MBC [3] was 10000 µg/mL (≈ 35.8 mM) and the MIC [4] was 10000 µg/mL (≈ 35.8 mM). The MBC [4] was 10000 µg/mL (≈ 35.8 mM), the MIC [5] was 10000 µg/mL (≈ 35.8 mM) and the MBC [5] was 10000 µg/mL (≈ 35.8 mM). It also gave an MIC [6] of 10000 µg/mL (≈ 35.8 mM) and an MBC [6] of 10000 µg/mL (≈ 35.8 mM).
